Test results published in patent US11958865B1, “Leucine-rich repeat kinase 2 (LRRK2) inhibitors” (H. Lundbeck A/S, priority 2022, dated 2024).
Read-outs that look alike come from different tables or passages of the source.

Tests used:
[1] = Hepatic microsomal intrinsic clearance assay; assay type: in vitro ADME; settings: for CLint scaled at 1 μM: pooled liver microsomes, pH 7.4, liver microsomes 0.5 mg/mL, NADPH, 1 hour at 37° C., LLOQ 0.36 L/h/kg
Procedure: Compounds (final concentration 1 μM, 1% organic) of the invention were incubated for 1 hour at 37° C., with shaking, in phosphate buffer (pH 7.4) containing commercially sourced pooled liver microsomes (final concentration 0.5 mg/mL). […] At designated time points (0, 5, 10, 20, 30 and 60 minutes) ice-cold acetonitrile containing internal standard (300 μL) was added to an incubation well to stop the reaction then mixed and centrifuged (3220 g for 20 minutes at 4° C.). Supernatant was diluted (1:4) with deionized water then analyzed by LC-MS/MS.

LRRK2 WT [2] = biological target: T1, LRRK2 WT (Homo sapiens (Human), UniProt Q5S007); experiment: LRRK2 wild-type ADP-Glo kinase assay; assay type: biochemical; settings: read-out: LRRK2 WT ADPGlo IC50
T1 sequence (Q5S007 970-2527): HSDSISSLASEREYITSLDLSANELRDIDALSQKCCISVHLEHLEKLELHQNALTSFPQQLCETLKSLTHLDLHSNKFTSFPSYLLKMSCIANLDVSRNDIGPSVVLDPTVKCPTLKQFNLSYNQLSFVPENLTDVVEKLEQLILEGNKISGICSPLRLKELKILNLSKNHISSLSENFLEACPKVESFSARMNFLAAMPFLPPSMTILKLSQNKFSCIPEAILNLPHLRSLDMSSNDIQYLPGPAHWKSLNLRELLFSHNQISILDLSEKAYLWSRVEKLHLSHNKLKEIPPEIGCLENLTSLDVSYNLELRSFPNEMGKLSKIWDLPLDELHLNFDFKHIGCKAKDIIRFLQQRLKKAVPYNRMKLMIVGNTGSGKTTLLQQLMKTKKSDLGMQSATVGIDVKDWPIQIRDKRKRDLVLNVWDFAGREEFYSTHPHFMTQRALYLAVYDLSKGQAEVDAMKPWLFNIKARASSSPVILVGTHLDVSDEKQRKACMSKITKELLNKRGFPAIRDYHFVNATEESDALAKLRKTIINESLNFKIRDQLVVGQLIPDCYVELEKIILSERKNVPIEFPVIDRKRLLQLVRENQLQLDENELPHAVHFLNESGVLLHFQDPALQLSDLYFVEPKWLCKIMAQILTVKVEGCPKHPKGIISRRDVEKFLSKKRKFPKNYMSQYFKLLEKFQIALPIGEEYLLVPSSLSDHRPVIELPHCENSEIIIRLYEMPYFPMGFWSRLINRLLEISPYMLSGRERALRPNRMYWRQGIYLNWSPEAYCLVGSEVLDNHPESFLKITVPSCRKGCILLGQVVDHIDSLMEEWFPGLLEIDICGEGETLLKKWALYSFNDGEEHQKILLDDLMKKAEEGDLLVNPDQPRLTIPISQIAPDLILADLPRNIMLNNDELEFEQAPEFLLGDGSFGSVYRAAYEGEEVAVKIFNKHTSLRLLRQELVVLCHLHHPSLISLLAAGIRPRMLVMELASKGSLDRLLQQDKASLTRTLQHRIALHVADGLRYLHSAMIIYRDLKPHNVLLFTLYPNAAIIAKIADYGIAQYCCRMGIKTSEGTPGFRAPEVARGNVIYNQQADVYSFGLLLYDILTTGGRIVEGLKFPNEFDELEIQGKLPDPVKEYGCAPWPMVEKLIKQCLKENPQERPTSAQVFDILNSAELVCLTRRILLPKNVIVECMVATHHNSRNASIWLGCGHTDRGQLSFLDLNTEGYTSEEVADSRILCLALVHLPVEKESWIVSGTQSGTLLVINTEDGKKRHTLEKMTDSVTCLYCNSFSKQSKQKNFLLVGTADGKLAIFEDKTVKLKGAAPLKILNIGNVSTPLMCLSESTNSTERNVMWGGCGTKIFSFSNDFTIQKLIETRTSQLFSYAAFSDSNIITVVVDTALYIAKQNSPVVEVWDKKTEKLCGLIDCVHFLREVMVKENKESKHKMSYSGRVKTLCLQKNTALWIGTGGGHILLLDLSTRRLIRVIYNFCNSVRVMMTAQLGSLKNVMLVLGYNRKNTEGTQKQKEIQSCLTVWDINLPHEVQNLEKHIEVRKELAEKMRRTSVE
Procedure: LRRK2 kinase activity was measured using an ADP-Glo kinase assay from Promega Corporation. The assay is a homogeneous luminescence-based assay that measures ADP formed from a kinase reaction. The ADP is converted into ATP, which is used to generate light in a luciferase reaction. The luminescence generated correlates with kinase activity.
The LRRK2 kinase was obtained from Invitrogen (Life Technologies Corporation) and comprises residue 970 to 2527 of the full length human wild-type LRRK2 kinase. The kinase reactions were performed in a 10 μL volume in 384-well plates. The kinase reaction buffer consisted of 50 mM Tris pH 8.5, 0.01% BRIJ-35, 10 mM MgCl2, 1 mM EGTA, and 2 mM DTT.
The reaction mixture (10 μl total volume) was incubated for 3 hours at room temperature (RT, ca. 25° C.), before the reaction was terminated by addition of 10 μl ADP-Glo reagent. The mixture was further incubated for 60 minutes at RT before addition of 20 μl Kinase detection reagent from the ADP-Glo assay kit. Luminescence signal was measure on a BMG Labtech Pherastar FSX multimode microplate reader. The signal integration time was 0.5 s.
Test compound potency (Ki,app) was estimated by nonlinear regression using the tight-binding fit model in GeneData Screener (GeneData AG). In cases where the Ki,app could not be determined, the % inhibition at the highest tested concentration is reported. The tight-binding fit model is given by euquation (2). […] Ki,app is the apparent dissociation constant of the inhibitor. The IC50 can be calculated as given by equation (3). Equation (3): IC50=Ki,app+[E]/2 (3) IC50 estimates were obtained from independent experiment and the logarithmic average was calculated.

[3] = Rat brain disposition after oral gavage; assay type: in vivo, male Sprague-Dawley rats; settings: male, Sprague-Dawley, oral 5 mg/kg, 1 h, mean ± stdev
Procedure: Brain disposition was evaluated in male Sprague-Dawley rats (n=3, standard body weight). Briefly, test compound was formulated as a simple suspension (0.5% HPMC in water) then administered by oral gavage (10 mg/kg, 10 mL/kg or 5 mg/kg, 10 mL/kg). At the designated time point (0.5 or 1 h post dose) rats were sacrificed and terminal blood and brain samples taken. Isolated plasma and brain homogenates were extracted by standard protein precipitation in acetonitrile, containing internal standard. Diluted extracts were analyzed by liquid-chromatography coupled with tandem mass spectrometry detection (LC-MS/MS) using a bioanalytical method. Concentrations of test compound in plasma and brain were quantified against matrix matched calibration standards. The total plasma and brain concentration time data are presented in Table 4 alongside the calculated brain Kp (total brain concentration:total plasma concentration ratio).
The total brain-to-plasma partition coefficient (brain Kp) is given by the ratio of the total brain concentration and total plasma concentration of the compound according to the equation below: […]
Based on the measured rat fuplasma and fubrain values and the brain Kp the unbound brain-to-plasma partition coefficient (brain Kp,uu for each compound was calculated. The Kp,uu parameter describes the extent of brain penetration for each compound, i.e. the parameter gives a direct quantitative description of how the blood-brain barrier (BBB) handles the compounds regarding passive transport and active influx/efflux. The brain Kp,uu is given by the equation below: […]

LRRK2 G2019S = LRRK2 G2019S (Homo sapiens (Human), UniProt Q5S007, G2019S); experiment: LRRK2 G2019S LanthaScreen TR-FRET kinase activity assay; assay type: biochemical; settings: 250 pM kinase, 1.3 mM ATP, n≥2 tests
Chain of LRRK2 G2019S (Q5S007 970-2527 G2019S): as the sequence (Q5S007 970-2527) above, with G1050S counted along it
Procedure: (§1) LRRK2 kinase activity was measured using a LanthaScreen kinase activity assay available from Invitrogen (Life Technologies Corporation). […] The phosphorylated peptide is recognized by a terbium-labelled phospho-specific anti-LRRKtide antibody (pLRRKtide antibody), obtainable from Life Technologies Corporation) and, subsequently, the phosphorylated LRRKtide can be quantified by the extent of TR-FRET between the terbium donor and fluorescein acceptor.
(§2) As discussed above, this mutation increases the kinase activity relative to the wild type. The kinase reactions were performed in a 20 μL volume in 384-well plates. The kinase reaction buffer consisted of 50 mM Tris pH 8.5, 0.01% BRIJ-35, 10 mM MgCl2, 1 mM EGTA, and 2 mM DTT.
(§3) The mixture was further incubated for 30 minutes at RT. TR-FRET was measured by excitation of the terbium-donor with 340 nm light and subsequent (delay time […]) measurement of terbium and fluorescein emission at 495 nm and 520 nm, respectively, over a time window of […]. The measurement was repeated 30 times for fluorescein and 30 times for terbium emission with a […] between repeats. TR-FRET measurements were performed on a Biotek Synergy plate. The TR-FRET signal was calculated as the emission-ratio at 520 nm over 495 nm.
(§4) Test compound potency (IC50) was estimated by nonlinear regression using the sigmoidal dose-response (variable slope) using Xlfit 4 (IDBS, Guildford, Surrey, UK, model 205). Were the IC50 could not be determined the % inhibition at the highest tested concentration is given by equation 1. Equation (1): y=(A+((B−A)/(1+((C/x)^D)))) (1)
(§5) where y is the normalized TR-TRET ratio measurement for a given concentration of test compound, x is the concentration of test compound, A is the estimated efficacy (% inhibition) at infinite compound dilution, and B is the maximal efficacy (% inhibition). C is the IC50 value and D is the Hill slope coefficient. IC50 estimates were obtained from independent experiment and the logarithmic average was calculated.

[4] = Fraction unbound in rat plasma and brain homogenate by equilibrium dialysis; assay type: in vitro ADME, male Sprague-Dawley rat; settings: 1 μM, equilibrium dialysis 5 h at 37° C.
Procedure: The fraction of unbound compound in male Sprague-Dawley rat plasma (fuplasma) and brain homogenate (fubrain) were determined by equilibrium dialysis using 96-well HTD-dialysis plates with dialysis membranes (molecular weight cut off 12-14 KDa). One side of the HTD-dialysis plate was loaded with matrix (plasma or brain homogenate) and the other side with buffer (100 mM sodium phosphate buffer, pH 7.4). Test compounds were dissolved in DMSO then spiked (5 μL of 0.2 mM) into blank (995 μL) plasma or diluted brain homogenate (1:4 ratio in phosphate buffer) giving a final nominal concentration 1 μM (≤0.5% DMSO). The matrices were loaded into respective chambers and equilibrated against phosphate buffer for 5 h at 37° C. (in a humidified air incubator with 5% CO2 with shaking). Samples from both chambers (buffer and plasma or brain homogenate) were aliquoted to fresh 96-well polypropylene plates then matrix matched using an equal volume of opposite blank matrix before extraction with cold solvent (3 volumes acetonitrile) containing an appropriate bioanalytical internal standard. After centrifugation (20 min, 3200 g, 4° C.) the supernatants were diluted with appropriate volumes of water and compound concentrations were quantified by LC/MS-MS against matrix matched calibration standards. The fuplasma and fubrain were calculated according to equation 4 below.
[formula] Where [F] is the compound concentration on the buffer (receiver) side of the membrane; [T] is the compound concentration on the plasma or brain (donor) side of the membrane; D is the matrix dilution factor which is determined as D=4 for brain matrix and D=1 for plasma matrix in these assays.

LRRK2 WT [5] = biological target: T1, LRRK2 WT; experiment: LRRK2 wild-type LanthaScreen TR-FRET kinase activity assay; assay type: biochemical; settings: 1 nM kinase, 1.3 mM ATP, n≥2 tests
Procedure: as §1, §2, §3, §4, §5

[6] = 0.5 nM kinase, 1.0 mM ATP, IC50=Ki,app+[E]/2, n≥2 tests

| Compound | CLint scaled at 1 μM [1] | IC50 (LRRK2 WT [2]; [6]) | IC50 (LRRK2 G2019S) | IC50 (LRRK2 WT [5]) | other results |
| --- | --- | --- | --- | --- | --- |
| [2H]C([2H])([2H])c1c2c(nn1-c1cc(C)cnc1C)OCCCn1nc(Cl)c3cnc(nc31)N2 [Example 27, 8-Chloro-2-(2,5-dimethylpyridin-3-yl)-3-(methyl-d3)-2,4,12,13-tetrahydro-11H-5,7-(azenometheno)dipyrazolo[3,4-b:5′,1′-g][1]oxa[4,6,8]triazacycloundecine] | 8.17 mL/min/kg | – | – | – | – |
| [2H]C([2H])([2H])c1c2c(nn1-c1cccnc1C)OCCCn1nc(Cl)c3cnc(nc31)N2 [Example 26, 8-Chloro-3-(methyl-d3)-2-(2-methylpyridin-3-yl)-2,4,12,13-tetrahydro-11H-5,7-(azenometheno)dipyrazolo[3,4-b:5′,1′-g][1]oxa[4,6,8]triazacycloundecine] | 11.7 mL/min/kg | – | – | – | – |
| Cc1c2c(nn1-c1cccnc1OC(F)F)OCCCn1nc(Cl)c3cnc(nc31)N2 [Example 19, 8-Chloro-2-(2-(difluoromethoxy)pyridin-3-yl)-3-methyl-2,4,12,13-tetrahydro-11H-5,7-(azenometheno)dipyrazolo[3,4-b:5′,1′-g][1]oxa[4,6,8]triazacycloundecine] | 33.8 mL/min/kg | 320 pM | 350 pM | 1100 pM | Kp at 1 h ([3]; brain, n=3): 2.8 ± 0.5; Kp uu at 1 h ([3]; brain, n=3): 0.87 ± 0.17; concentration at 1 h ([3]; brain, n=3, read-out: Total brain concentration): 48 ± 11 ng/g; concentration at 1 h ([3]; plasma, n=3, read-out: Total plasma concentration): 19 ± 8 ng/mL; Rate of metabolism classification (liver microsomal CLint) ([1]; based on liver microsomal CLint values of Table 6): moderate to high rate of metabolism; fubrain (% free) ([4]; rat brain homogenate): 2.7 % free; fuplasma (% free) ([4]; rat plasma): 8.6 % free |
| [2H]C([2H])([2H])c1c2c(nn1-c1cccnc1OC)OCCCn1nc(Cl)c3cnc(nc31)N2 [Example 28, 8-Chloro-2-(2-methoxypyridin-3-yl)-3-(methyl-d3)-2,4,12,13-tetrahydro-11H-5,7-(azenometheno)dipyrazolo[3,4-b:5′,1′-g][1]oxa[4,6,8]triazacycloundecine] | 10.2 mL/min/kg | – | 230 pM | 760 pM | IC50 (LRRK2 WT [2]): 630 pM |
| [2H]C([2H])([2H])c1c2c(nn1-c1cc(F)cnc1C)OCCCn1nc(Cl)c3cnc(nc31)N2 [Example 30, 8-Chloro-2-(5-fluoro-2-methylpyridin-3-yl)-3-(methyl-d3)-2,4,12,13-tetrahydro-11H-5,7-(azenometheno)dipyrazolo[3,4-b:5′,1′-g][1]oxa[4,6,8]triazacycloundecine] | 14 mL/min/kg | – | – | – | – |
| Cc1c2c(nn1-c1cccnc1OC(F)(F)F)OCCCn1nc(Cl)c3cnc(nc31)N2 [Example 20, 8-Chloro-3-methyl-2-(2-(trifluoromethoxy)pyridin-3-yl)-2,4,12,13-tetrahydro-11H-5,7-(azenometheno)dipyrazolo[3,4-b:5′,1′-g][1]oxa[4,6,8]triazacycloundecine] | 18.3 mL/min/kg | 480 pM | 1100 pM | 3400 pM | – |
| Cc1c2c(nn1-c1cccnc1C(F)(F)F)OCCCn1nc(Cl)c3cnc(nc31)N2 [Example 17, 8-Chloro-3-methyl-2-(2-(trifluoromethyl)pyridin-3-yl)-2,4,12,13-tetrahydro-11H-5,7-(azenometheno)dipyrazolo[3,4-b:5′,1′-g][1]oxa[4,6,8]triazacycloundecine] | 15.3 mL/min/kg | 3100 pM | 5500 pM | 20000 pM | – |
| COc1nnccc1-n1nc2c(c1C)Nc1ncc3c(Cl)nn(c3n1)CCCO2 [Example 21, 8-Chloro-2-(3-methoxypyridazin-4-yl)-3-methyl-2,4,12,13-tetrahydro-11H-5,7-(azenometheno)dipyrazolo[3,4-b:5′,1′-g][1]oxa[4,6,8]triazacycloundecine] | 25.7 mL/min/kg | 450 pM | 240 pM | 940 pM | – |
| CCc1ncccc1-n1nc2c(c1C)Nc1ncc3c(Cl)nn(c3n1)CCCO2 [Example 4, 8-Chloro-2-(2-ethylpyridin-3-yl)-3-methyl-2,4,12,13-tetrahydro-11H-5,7-(azenometheno)dipyrazolo[3,4-b:5′,1′-g][1]oxa[4,6,8]triazacycloundecine] | 23.8 mL/min/kg | 820 pM | 1800 pM | 7000 pM | – |
